Tests used:
STING HAQ-variant = target: T1, STING HAQ-variant (Homo sapiens, UniProt Q86WV6, G230A/H232R/R293Q/R71H); assay: IRF-inducible SEAP reporter assay in THP1-Blue ISG cells, STING HAQ-variant; format: cell-based; conditions: STING HAQ-variant (parental or re-introduced), 24 hours incubation
T1 construct: parental THP1-Blue™ ISG cell lines (which express endogenously HAQ); host or cells: THP1-Blue ISG (parental, endogenous HAQ) or STING-KO clone re-transduced with HAQ (MSCV-ires-GFP-Blasti)
T1 sequence (Q86WV6 whole entry R71H/G230A/H232R/R293Q): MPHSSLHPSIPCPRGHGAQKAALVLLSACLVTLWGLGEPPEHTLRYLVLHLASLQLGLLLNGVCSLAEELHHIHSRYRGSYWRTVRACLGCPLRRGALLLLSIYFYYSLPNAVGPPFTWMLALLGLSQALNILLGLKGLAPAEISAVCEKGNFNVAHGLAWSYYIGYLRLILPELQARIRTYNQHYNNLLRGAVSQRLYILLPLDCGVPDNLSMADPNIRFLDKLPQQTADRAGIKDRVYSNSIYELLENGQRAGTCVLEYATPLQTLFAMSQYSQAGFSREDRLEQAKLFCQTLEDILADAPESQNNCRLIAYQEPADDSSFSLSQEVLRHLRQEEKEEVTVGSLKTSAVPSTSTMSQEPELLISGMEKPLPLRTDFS
From the text: (§1) In Vitro Cytokine Induction Measured Via Activation of an Interferon Regulatory Factor Inducible Reporter Gene
(§2) Activation of the STING protein expressed in cell lines results in an increase of interferon production. By the stable integration of an interferon regulatory factor (IRF)-inducible SEAP gene (secreted embryonic alkaline phosphatase) reporter construct the functional interferon signaling pathway can be monitored. Using Invivogen's THP1-Blue™ ISG colorimetric enzyme assay and a suitable optical density (OD) reader the activity of SEAP can be detected and quantified. This technique could be used to characterize pharmacological modification of the STING pathway.
(§3) Several single nucleotide polymorphisms have been identified in the human STING gene. To determine the activity of the above described compounds, THP1-Blue™ ISG reporter cell lines expressing the different human STING variants have been generated. To do so, the endogenous human STING was first deleted using the CRISPR/CAS9 system: THP1-Blue ISG cells were electroporated with ALL-IN-ONE CRISPR plasmids targeting the STING gene (purchased from Sigma encoding the gRNA and GFP as a reporter gene for successful transduction). GFP positive cells then were sorted 24 h post transfection and expanded. Cells were then dispersed in semisolid methocel medium to allow single cell clone isolations. Clones were then screened for cGAMP responsiveness using the Quanti-Blue™ reporter assay. Non-responsive clones were subsequently analysed for STING loss by western blotting and sequencing of the STING locus.
(§4) For the overexpression of the human STING variants, a confirmed THP1-Blue™ ISG hSTING KO clone was transduced with individual retroviral plasmids (MSCV-ires-GFP-Blasti) encoding the allelic variants of hSTING (WT (H232R), HAQ, R232H, AQ and R293Q). Transduced cells were sorted for different levels of GFP fluorescence and STING allele expression was analysed by western blot.
(§5) Measurements of SEAP activity were performed in THP1-Blue™ ISG cells stably expressing the different human STING isoforms and the IRF-inducible SEAP reporter construct. Cells were cultivated in RPMI1640 medium with 10% fetal calf serum, 50 μg/ml Penicillin-Streptomycin, 100 μg/ml Zeocin, and 100 μg/ml Normocin in a 37°, 95% humidity and 5% CO2 incubator.
(§6) In preparation for the assay, the cells were distributed into the assay plates with a density of 10000 cells/15 μL per well. Compounds were prepared by an 8 point serial dilution in 50% aqueous DMSO and a final dilution step into medium to ensure a final DMSO concentration of 0.5% in the assay. 5 μL of diluted compounds were added to the plates, followed by a 24 hours incubation at 37° C.
(§7) At the day of the assay, 75 μl per well of Quanti-Blue™ reagent was added to all wells of the plate and the plate was incubated another 30 minutes at 37° C. The OD at 620 nm was measured on the EnVision reader (PerkinElmer).
(§8) EC50 values and Hill slopes were derived from 8-point four parametric non-linear curve fittings with the Megalab software (Boehringer Ingelheim) using the OD at 620 nm.
(§9) Data of EC50 values can be found in tables 2a-2e.
Data of EC50 values on STING HAQ-variant can be found in table 2a. Shown data below were either derived from the parental THP1-Blue™ ISG cell lines (which express endogenously HAQ) or from genetically engineered THP1-Blue™ ISG cell lines in which first STING has been knocked-out and the HAQ specific STING isoform has been re-introduced as described above.

STING H232R-variant = target: T2, STING H232R-variant (Homo sapiens, UniProt Q86WV6, H232R); assay: IRF-inducible SEAP reporter assay in THP1-Blue ISG cells, STING H232R-variant; format: cell-based; conditions: STING H232R-variant (WT), 24 hours incubation
T2 construct: expressed in transfected cells; host or cells: THP1-Blue ISG hSTING KO clone, retroviral MSCV-ires-GFP-Blasti
T2 sequence (Q86WV6 whole entry H232R): as the sequence (Q86WV6 whole entry R71H/G230A/H232R/R293Q) above, with H71R, A230G, Q293R counted along it
From the text: as §1, §2, §3, §4, §5, §6, §7, §8, §9
Data of EC50 values on STING H232R-variant can be found in table 2b: […]

STING R232H-variant = target: T3, STING R232H-variant (Homo sapiens, UniProt Q86WV6); assay: IRF-inducible SEAP reporter assay in THP1-Blue ISG cells, STING R232H-variant; format: cell-based; conditions: 24 hours incubation
T3 construct: expressed in transfected cells; host or cells: THP1-Blue ISG hSTING KO clone, retroviral MSCV-ires-GFP-Blasti
T3 sequence (Q86WV6 whole entry, stated change not applied): as the sequence (Q86WV6 whole entry R71H/G230A/H232R/R293Q) above, with H71R, A230G, R232H, Q293R counted along it
From the text: as §1, §2, §3, §4, §5, §6, §7, §8, §9
Data of EC50 values on STING R232H-variant can be found in table 2c: […]

STING R293Q-variant = target: T4, STING R293Q-variant (Homo sapiens, UniProt Q86WV6, H232R/R293Q); assay: IRF-inducible SEAP reporter assay in THP1-Blue ISG cells, STING R293Q-variant; format: cell-based; conditions: 24 hours incubation
T4 construct: expressed in transfected cells; host or cells: THP1-Blue ISG hSTING KO clone, retroviral MSCV-ires-GFP-Blasti
T4 sequence (Q86WV6 whole entry H232R/R293Q): as the sequence (Q86WV6 whole entry R71H/G230A/H232R/R293Q) above, with H71R, A230G counted along it
From the text: as §1, §2, §3, §4, §5, §6, §7, §8, §9
Data of EC50 values on STING R293Q-variant can be found in table 2d: […]

[1] = test system: Human STING (hSTING, residues 155-341); assay: Interaction with hSTING as determined by Differential Scanning Fluorimetry (DSF); format: binding; conditions: 100 μM test compounds, 5 μM target protein
Protocol: Interaction with hSTING as Determined by Differential Scanning Fluorimetry (DSF)
In DSF, the temperature at which a protein unfolds, also called the melting temperature Tm, is measured by changes in fluorescence of a dye that binds to the hydrophobic parts of the protein. Tm shifts upon binding of a small molecule are correlated with the binding affinity of this small molecule. As target protein, Human STING (hSTING, residues 155-341, MW: 21578.4 Da; protein stock solution: c=1302 μM stock solution in 20 mM Tris, 100 mM NaCl, 2 mM TCEP pH 8.8) was used, as assay buffer 20 mM Tris, 150 mM NaCI pH7.5 was added where and as necessary.
Final concentrations of components in assay: 100 μM test compounds, 5 μM target protein, “5×” SYPR Orange (from stock solution SYPRO orange solution in DMSO (invitrogen cat.-no. S6650-500 ul), concentration “5000×”)
1) Dilutions of compound stock solutions (10 mM in DMSO) were prepared in assay buffer (20 mM Tris, 150 mM NaCl; pH7.5)
2) 5 μl fluorescent dye stock solution (5000×SYPRO Orange in DMSO) was mixed with 19 μl target protein (1302 μM) and 976 μl assay buffer.
3) 2 μl of this protein-dye-mixture (25×SYPRO Orange and 25 μM Protein) was added to 8 μl diluted compound solution as prepared in step 1. Final volume was 10 μl.
4) With every 20 compounds, two negative controls were measured.
5) The plates were prepared for duplicate measurement and centrifuged for 2 min at 1000 g.
6) For the measurement, a CFX384 Real-Time System (Bio-Rad) was used. The run consisted of 140 cycles with 0.5° C./cycle (temperature ramp 15 s/cycle, 25° C. to 95° C.).
Data analysis: The melting curves were processed in Bio-Rad CFX Manager. Peak type was set to “negative”. Two replicates of TM (melting temperature) measurements were averaged and the standard deviation was calculated.

in vitro = conditions: human, Caco-2, pH 7.4
Protocol: Cellular Permeability Measurements
Caco-2 cells were obtained from Leibniz Institute DSMZ-German Collection of Microorganisms and Cell Cultures (Braunschweig, Germany) and cultured in DMEM (Dulbecco's modified Eagle medium) containing (in final concentrations) 10% FCS (fetal calf serum), 1% NEAA (non-essential amino acids), 2 mM Glutamin, 100 U/mL Penicillin and 100 μg/mL Streptomycin. Caco-2 cells were seeded either onto 24-well Transwell inserts (Corning, #3379) for bidirectional permeability assays at a density of 160,000 cells/cm^2 and cultured for 3 weeks, with media change on every second day.
For bidirectional permeability assays 10 mM DMSO stock solutions were diluted in transport buffer (final concentrations: 128.13 mM NaCl, 5.36 mM KCl, 1 mM MgSO4, 1.8 mM CaCl2, 4.17 mM NaHCO3, 1.19 mM Na2HPO4, 0.41 mM NaH2PO4, 15 mM 2-[4-(2-hydroxyethyl)piperazin-1-yl]ethanesulfonic acid (HEPES), 20 mM glucose, pH 7.4) containing 0.25% bovine serum albumin to a final concentration of 10 μM of the test compounds and added to the apical or basal compartment. Cells were incubated with the compounds for up to 2 h. Samples from the opposite compartment were taken at different timepoints.
Compound concentrations in the compartments were quantified using a RapidFire-based high-throughput HPLC/MS/MS system (high performance liquid chromatography/mass spectrometry; Bio-Cius) that was customized to a fully automated and flexible platform, termed RIAS. In this modified setup, the sample was aspirated by a vacuum pump into a 10 μL sample loop for 250 ms and flushed onto a C4 cartridge (3.8 μL bed volume; Bio-Cius) with the aqueous mobile phase (99.9% water, 0.09% formic acid, and 0.01% TFA; flow rate 1.5 mL/min). Prior to bioanalysis samples were spiked with internal standard solution and diluted with acetonitrile (ACN) for protein precipitation. Measurement was operated in multiplereaction monitoring (MRM) mode. Quantification was performed using external calibration. A solid-phase extraction step retained the analyte for 3000 ms while interfering matrix (e.g., buffer components) was removed. With a simple step gradient, the analyte was back-eluted from the cartridge for 3,000 ms with the organic mobile phase (99.9% acetonitrile/methanol [1:1, v:v], 0.09% formic acid, and 0.01% TFA) and flushed into the mass spectrometer at a flow rate of 1.25 mL/min. Afterwards, the cartridge was re-equilibrated with the aqueous mobile phase for 500 ms (flow rate 1.5 mL/min).
Apparent permeability coefficients in the apical to basal direction (Papp,AB) and in the basal to apical direction (Papp,BA) and efflux ratios were calculated as follows: Papp,AB=QAB/(C0·s·t) Papp,BA=QBA/(C0·s·t) Efflux ratio=Papp,BA/Papp,AB
where Q is the amount of compound recovered in the receiver compartment after the incubation time t, C0 the initial compound concentration given to the donor compartment, and s the surface area of the Transwell inserts. […] In addition, transepithelial electrical resistance (TEER) values are measured for each plate before the permeability assay, and total recovery in donor and receiver compartments was determined for each compound.

SMILES | EC50 (STING HAQ-variant) [nM] | EC50 (STING H232R-variant) [nM] | EC50 (STING R232H-variant) [nM] | EC50 (STING R293Q-variant) [nM] | thermal shift (ΔTm) [1] [K] | Papp A→B at 10 μM (in vitro) [×10⁻⁶ cm/s] | efflux ratio at 10 μM (in vitro)
Cc1cccc2c(-c3cccc4nn(C)cc34)nn(-c3ccc(N4CCS(=O)(=O)CC4)nc3)c12 [Example #5, 4-(5-{2,7-dimethyl-1H,2′H-[3,4′-biindazol]-1-yl}pyri-din-2-yl)-1λ^6-thiomorpho-line-1,1-dione] | 1400 | 500 | 1000 | 1200 |  |  | 
CC(=O)N(C)C1CCN(c2ccc(-n3nc(-c4cccc5nn(C)cc45)c4cccc(C)c43)cn2)C1 (centres unmarked) [Example #6, N-[1-(5-{2′,7-dimethyl-1H,2′H-[3,4′-biindazol]-1-yl}pyridin-2-yl)pyrrolidin-3-yl]-N-methylacetamide] | 3100 |  |  |  | 22 | 39 | 0.4
C#Cc1cccc2c(-c3cccc4nn(C)cc34)nn(-c3ccc(N4CC5C(C4)C5C(=O)O)nc3)c12 (centres unmarked) [Example #74, 3-(5-{7-ethynyl-2′-methyl-1H,2′H-[3,4′-biindazol]-1-yl}pyridin-2-yl)-3-azabicyclo[3.1.0]hexane-6-carboxylic acid] | 4300 |  |  |  | 16 |  | 
Cc1cccc2c(-c3cccc4nn(C)cc34)nn(-c3ccc(N4CC5(CCS(=O)(=O)CC5)C4)nc3)c12 [compound 4, 2-(5-{2′,7-dimethyl-1H,2′H-[3,4′-biindazol]-1-yl}pyri-din-2-yl)-7λ^6-thia-2-azaspiro[3.5]nonane-7,7-dione] | 1100 |  |  |  | 20 |  | 
Cc1cccc2c(-c3cccc4nn(C)cc34)nn(-c3ccc(N4CCN5C(=O)OCC5C4)nc3)c12 (centres unmarked) [compound 8, 7-(5-{2′,7-dimethyl-1H,2′H-[3,4′-biindazol]-1-yl}pyri-din-2-yl)-hexahydro-1H-[1,3]oxazolo[3,4-a]pyrazin-3-one] | 1200 |  |  |  | 21 |  | 
Cc1cccc2c(-c3cccc4nn(C)cc34)nn(-c3ccc(N4CC5CC4CO5)nc3)c12 (centres unmarked) [compound 11, 2′,7-dimethyl-1-(6-{2-oxa-5-azabicyclo[2.2.1]heptan-5-yl}pyridin-3-yl)-1H,2′H-3,4′-biindazole] | 3200 |  |  |  | 21 | 27 | 0.3
COCCNc1ccc(-n2nc(-c3cccc4nn(C)cc34)c3cccc(C)c32)cn1 [compound 14, 5-{2′,7-dimethyl-1H,2′H-[3,4′-biindazol]-1-yl}-N-(2-methoxyethyl)pyridin-2-amine] | 6900 |  |  |  | 18 | 39 | 0.3
Cc1cccc2c(-c3cccc4nn(C)cc34)nn(-c3ccc(N4CCC(c5cnn(C)c5)CC4)nc3)c12 [compound 20, 2′,7-dimethyl-1-{6-[4-(1-methyl-1H-pyrazol-4-yl)pi-peridin-1-yl]pyridin-3-yl}-1H,2′H-3,4′-biindazole] | 2200 |  |  |  | 20 |  | 0.8
Cc1cccc2c(-c3cccc4nn(C)cc34)nn(-c3ccc(N4CCC(N5CCCC5=O)CC4)nc3)c12 [compound 21, 1-[1-(5-{2′,7-dimethyl-1H,2′H-[3,4′-biindazol]-1-yl}pyridin-2-yl)piperidin-4-yl]pyrrolidin-2-one] | 4700 |  |  |  | 20 | 23 | 0.3
COC(=O)c1ccc2c(-c3cccc4nn(C)cc34)nn(-c3ccc(N4CCC(S(C)(=O)=O)CC4)nc3)c2c1C [compound 25, methyl 1-[6-(4-meth-anesulfonylpiperidin-1-yl)pyridin-3-yl]-2′,7-di-methyl-1H,2′H-[3,4′-biindazole]-6-carboxylate] | 200 |  |  |  | 25 |  | 
Cc1cccc2c(-c3cccc4nn(C)cc34)nn(-c3ccc(N4CCC(C)(C(=O)O)CC4)nc3)c12 [compound 27, 1-(5-{2′,7-dimethyl-1H,2′H-[3,4′-biindazol]-1-yl}pyri-din-2-yl)-4-methylpiperi-dine-4-carboxylic acid] | 5200 |  |  |  | 22 | 32 | 0.5
CCOC(=O)C1CCN(c2ccc(-n3nc(-c4cccc5nn(C)cc45)c4cccc(C)c43)cn2)CC1 [compound 31, ethyl 1-(5-{2′,7-dimethyl-1H,2′H-[3,4′-biindazol]-1-yl}pyridin-2-yl)piperidine-4-carboxylate] | 5400 |  |  |  |  |  | 0.6
Cc1cccc2c(-c3cccc4nn(C)cc34)nn(-c3ccc(N4CCCNCC4)nc3)c12 [compound 45, 1-(6-(1,4-diazepan-1-yl)pyridin-3-yl)-2′,7-dimethyl-1H,2′H-3,4′-biindazole] | 1900 |  |  |  | 19 |  | 
Cc1cccc2c(-c3cccc4nn(C)cc34)nn(-c3ccc(N4CCCN(C=O)CC4)nc3)c12 [compound 52, 4-(5-{2′,7-dimethyl-1H,2′H-[3,4′-biindazol]-1-yl}pyridin-2-yl)-1,4-di-azepane-1-carbalde-hyde] | 1900 |  |  |  | 21 |  | 0.4
Cc1cccc2c(-c3cccn4nccc34)nn(-c3ccc(N4CCC(C(=O)O)CC4)nc3)c12 [compound 60, 1-[5-(7-methyl-3-{pyra-zolo[1,5-a]pyridin-4-yl}-1H-indazol-1-yl)pyridin-2-yl]piperidine-4-carboxylic acid] | 6600 |  |  |  |  | 19 | 0.9
Cc1cccc2c(-c3cccc4nn(C)cc34)nn(-c3ccc(-c4ccc(S(C)(=O)=O)cc4)nc3)c12 [compound 73, 1-[6-(4-methanesulfonylphenyl)pyridin-3-yl]-2′,7-dimethyl-1H,2′H-3,4′-biindazole] | 4400 |  |  |  |  |  | 0.5

From patent US12065427B2, “Heterocyclic compounds capable of activating STING” (BOEHRINGER INGELHEIM INTERNATIONAL GMBH, priority 2021, dated 2024)
